Results on 23 compounds are retold here after patent US20230037448A1, “FLUORINATED QUINOLINE AND QUINOXALINE DERIVATIVES AS DIHYDROOROTATE DEHYDROGENASE (DHODH) INHIBITORS FOR THE TREATMENT OF CANCER, AUTOIMMUNE AND INFLAMMATORY DISEASES” (Janssen Biotech, Inc., priority 2019, published 2023).

One assay concerns the target T1, human DHODH (Homo sapiens, UniProt Q02127).
T1 construct: purchased Proteros PR-0044
The assay can be described thus: DHODH Enzymatic Assay. In kind it is biochemical. To be noted: purified human DHODH; DCIP absorbance, end-point mode. The protocol:
To detect DHODH enzyme activities, dichloroindophenol (DCIP) is added as the final electron acceptor in the assay. DCIP can accept electrons from the reduced coenzyme Q generated in the assay, or from dihydroorotate (DHO) via FMN by binding presumably to the ubiquinone pocket. DCIP solutions are blue, with an intense absorbance around 600 nm, but becomes colorless upon reduction (J. Biol. Chem. (1986) 261, 11386). The assay buffer contained […], pH 7.5, 150 mM NaCl, 0.5 mM EDTA, and 0.1% Triton X-100 in MilliQ water. Substrate consisting of 20 mM DHO, 5 mM CoQ6, and 1 mM DCIP in assay buffer, initiates the reaction. The assay is run in end-point mode by quenching the reaction with the potent DHODH inhibitor brequinar. Absorbance measurements were obtained using the BMG Phera Star plate-reading spectrophotomer. Purified human DHODH was purchased from Proteros (cat. No. PR-0044). Chemicals were purchased from Sigma-Aldrich, Teknova, and Avanti Polar Lipids. Liquid handling was performed using Labcyte Echo and Formulatrix Tempest.

In a further assay the test system is MOLM-13 cells. The assay can be described thus: MOLM-13 Cellular Assay. It is filed as cell-based. To be noted: 72 hours exposure, cell viability by CellTiter-Glo. The protocol: MOLM-13 cells were obtained from DSMZ and were maintained in RPMI 1640+Glutamax+25 mM HEPES (Invitrogen, catalog number 72400) supplemented with 10% heat inactivated fetal bovine serum (FBS; Invitrogen, catalog number 16140). The day prior to assay set-up, cells were pelleted, resuspended in fresh media, counted, and cells were plated at 0.4×10^6 cell/mL in a T150 flask. On the day of the assay, cells were pelleted, resuspend in fresh media, counted, and seeded at 5,000 cells/well in white opaque 96-well tissue culture treated microplates (Perkin Elmer, catalog number 6005680). Cells were exposed to different concentrations of test compounds at 37° C., 5% CO2 for 72 hours immediately after seeding. Cell viability was acquired on a Perkin Elmer Envision 2104 multilabel reader using the CellTiter-Glo assay (Promega) according to the manufacturer's instructions.

T1 sequence (Q02127 whole entry): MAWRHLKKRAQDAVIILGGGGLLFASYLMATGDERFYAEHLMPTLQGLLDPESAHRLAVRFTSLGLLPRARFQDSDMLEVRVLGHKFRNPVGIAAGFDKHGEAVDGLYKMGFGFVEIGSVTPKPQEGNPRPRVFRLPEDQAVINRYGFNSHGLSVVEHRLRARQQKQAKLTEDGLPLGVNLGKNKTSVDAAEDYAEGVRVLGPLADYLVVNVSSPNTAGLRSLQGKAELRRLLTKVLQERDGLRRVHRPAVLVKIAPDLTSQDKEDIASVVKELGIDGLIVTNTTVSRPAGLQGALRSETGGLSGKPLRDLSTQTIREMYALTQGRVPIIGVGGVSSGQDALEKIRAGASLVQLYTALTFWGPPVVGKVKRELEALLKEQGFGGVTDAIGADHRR

Broadly, the IC50 is the concentration that inhibits the measured activity by half. Read a high IC50 as lower potency. As to `CCn1c(CO)nn(-c2cc3c(C(C)C(F)(F)F)cc(-c4ccccc4C)nc3cc2F)c1=O` (single isomer, unassigned) [Example 36, (S*)-4-Ethyl-1-(7-fluoro-2-(o-tolyl)-4-(1,1,1-trifluoropropan-2-yl)quinolin-6-yl)-3-(hydroxymethyl)-1H-1,2,4-triazol-5 (4H)-one], the figures for the IC50 against human DHODH and with MOLM-13 cells were 0.32 nM and 0.4 nM, respectively.
With `CCn1c(CO)nn(-c2cc3c(C(C)C(F)(F)F)cc(-c4ccccc4C)nc3cc2F)c1=O` (single isomer, unassigned) [Example 37, (R*)-4-Ethyl-1-(7-fluoro-2-(o-tolyl)-4-(1,1,1-trifluoropropan-2-yl)quinolin-6-yl)-3-(hydroxymethyl)-1H-1,2,4-triazol-5 (4H)-one], the concentration for half-maximal inhibition (IC50) is 5.3 nM against human DHODH and 1 nM in the assay on MOLM-13 cells.
Consider `CCn1c(CO)nn(-c2cc3c(C(C)C)cc(-c4ccccc4OC)nc3cc2F)c1=O` [Example 1, 4-Ethyl-1-(7-fluoro-4-isopropyl-2-(2-methoxyphenyl)quinolin-6-yl)-3-(hydroxymethyl)-1H-1,2,4-triazol-5 (4H)-one], for which the concentration for half-maximal inhibition (IC50) against human DHODH was determined as 3.3 nM; with MOLM-13 cells (Homo sapiens, MOLM-13, 72 h) it was 2.6 nM.
Regarding `CCn1c(CO)nn(-c2cc3c(C(C)C)cc(-c4c(Cl)n[nH]c4C)nc3cc2F)c1=O` [Example 2, 1-(2-(3-Chloro-5-methyl-1H-pyrazol-4-yl)-7-fluoro-4-isopropylauinolin-6-yl)-4-ethyl-3-(hydroxymethyl)-1H-1,2,4-triazol-5 (4H)-one], the concentration for half-maximal inhibition (IC50) on human DHODH came to 0.49 nM; in the assay on MOLM-13 cells (Homo sapiens, MOLM-13, 72 h) it was 1.7 nM.
For `CCn1c(CO)nn(-c2cc3c(C(C)C)cc(-c4c(C(F)(F)F)n[nH]c4C)nc3cc2F)c1=O` [Example 3, 4-Ethyl-1-(7-fluoro-4-isopropyl-2-(5-methyl-3-(trifluoromethyl)-1H-pyrazol-4-yl)quinolin-6-yl)-3-(hydroxymethyl)-1H-1,2,4-triazol-5 (4H)-one], in that order: 0.58 nM and 0.7 nM.
The corresponding values for `CCn1c(CO)nn(-c2cc3c(C(C)C)cc(-c4c(C)cnc(OC)c4C)nc3cc2F)c1=O` [Example 4, 4-Ethyl-1-(7-fluoro-4-isopropyl-2-(2-methoxy-3,5-dimethylpyridin-4-yl)quinolin-6-yl)-3-(hydroxymethyl)-1H-1,2,4-triazol-5 (4H)-one] are 1.7 nM and 8.4 nM.
Consider `CCC(CC)Oc1cc(C(C)C)c2cc(-n3nc(CO)n(CC)c3=O)c(F)cc2n1` [Example 5, 4-Ethyl-1-(7-fluoro-4-isopropyl-2-(pentan-3-yloxy)quinolin-6-yl)-3-(hydroxymethyl)-1H-1,2,4-triazol-5 (4H)-one], for which the IC50 at human DHODH was 332 nM; with MOLM-13 cells (Homo sapiens, MOLM-13, 72 h), above 100 nM.
The corresponding values for `CCn1c(CO)nn(-c2cc3c(C(C)C)cc(OC4CCC4)nc3cc2F)c1=O` [Example 6, 1-(2-Cyclobutoxy-7-fluoro-4-isopropylauinolin-6-yl)-4-ethyl-3-(hydroxymethyl)-1H-1,2,4-triazol-5 (4H)-one] are 1080 nM and above 100 nM.
`CCn1c(CO)nn(-c2cc3c(C(C)C)cc(-c4c(C)cnc(OC)c4Cl)nc3cc2F)c1=O` [Example 7, 1-(2-(3-Chloro-2-methoxy-5-methylpyridin-4-yl)-7-fluoro-4-isopropylquinolin-6-yl)-4-ethyl-3-(hydroxymethyl)-1H-1,2,4-triazol-5 (4H)-one]: the IC50 at human DHODH worked out at 1.5 nM; with MOLM-13 cells (Homo sapiens, MOLM-13, 72 h) it was 4 nM.
For `CCn1c(CO)nn(-c2cc3c(C(C)C)cc(-c4cc(OC)ncc4C)nc3cc2F)c1=O` [Example 8, 4-Ethyl-1-(7-fluoro-4-isopropyl-2-(2-methoxy-5-methylpyridin-4-yl)quinolin-6-yl)-3-(hydroxymethyl)-1H-1,2,4-triazol-5 (4H)-one], in that order: 4.8 nM and 9.1 nM.
For `CCn1c(CO)nn(-c2cc3c(C(C)C)cc(-c4ccccc4C)nc3cc2F)c1=O` [Example 9, 4-Ethyl-1-(7-fluoro-4-isopropyl-2-(o-tolyl)quinolin-6-yl)-3-(hydroxymethyl)-1H-1,2,4-triazol-5 (4H)-one], in that order: 0.6 nM and 0.5 nM.
Consider `CCn1c(CO)nn(-c2cc3c(C(C)C)nc(-c4ccccc4C)nc3cc2F)c1=O` [Example 10, 4-Ethyl-2-(7-fluoro-4-isopropyl-2-(o-tolyl)quinazolin-6-yl)-5-(hydroxymethyl)-2,4-dihydro-3H-1,2,4-triazol-3-one], for which the half-inhibitory concentration (IC50) on human DHODH was found to be 1.9 nM; in the assay with MOLM-13 cells (Homo sapiens, MOLM-13, 72 h), 2.2 nM.
As for `CCn1c(CO)nn(-c2cc3c(C(C)C)cc(-c4c(C)ccnc4OC)nc3cc2F)c1=O` [Example 11, 4-Ethyl-2-(7-fluoro-4-isopropyl-2-(2-methoxy-4-methylpyridin-3-yl)quinolin-6-yl)-5-(hydroxymethyl)-2,4-dihydro-3H-1,2,4-triazol-3-one], the IC50 at human DHODH turned out to be 32 nM; in the assay with MOLM-13 cells (Homo sapiens, MOLM-13, 72 h), 30 nM.
For `CCn1c(CO)nn(-c2cc3c(C(C)C)cc(-n4nc(C)cc4C)nc3cc2F)c1=O` [Example 12, 1-(2-(3,5-Dimethyl-1H-pyrazol-1-yl)-7-fluoro-4-isopropylquinolin-6-yl)-4-ethyl-3-(hydroxymethyl)-1H-1,2,4-triazol-5 (4H)-one], in that order: 2.3 nM and 5 nM.
The corresponding values for `CCN(CC)c1cc(C(C)C)c2cc(-n3nc(CO)n(CC)c3=O)c(F)cc2n1` [Example 13, 1-(2-(Diethylamino)-7-fluoro-4-isopropylquinolin-6-yl)-4-ethyl-3-(hydroxymethyl)-1H-1,2,4-triazol-5 (4H)-one] are 270 nM and above 100 nM.
For `CCn1c(CO)nn(-c2cc3c(C(C)C)cc(N4CCCCC4)nc3cc2F)c1=O` [Example 14, 4-Ethyl-1-(7-fluoro-4-isopropyl-2-(piperidin-1-yl)quinolin-6-yl)-3-(hydroxymethyl)-1H-1,2,4-triazol-5 (4H)-one], in that order: 120 nM and 100 nM.
Regarding `CCn1c(CO)nn(-c2cc3c(C(C)C)cc(-c4c[nH]nc4C4CC4)nc3cc2F)c1=O` [Example 15, 1-(2-(3-Cyclopropyl-1H-pyrazol-4-yl)-7-fluoro-4-isopropylquinolin-6-yl)-4-ethyl-3-(hydroxymethyl)-1H-1,2,4-triazol-5 (4H)-one], the IC50 against human DHODH worked out at 13 nM; in the assay on MOLM-13 cells (Homo sapiens, MOLM-13, 72 h), 20 nM.
Turning to `CCn1c(CO)nn(-c2cc3c(C(C)C)cc(-c4c[nH]nc4C)nc3cc2F)c1=O` [Example 16, 4-Ethyl-2-(7-fluoro-4-isopropyl-2-(3-methyl-1H-pyrazol-4-yl)quinolin-6-yl)-5-(hydroxymethyl)-2,4-dihydro-3H-1,2,4-triazol-3-one], the 50% inhibitory concentration (IC50) against human DHODH is 9.4 nM; with MOLM-13 cells (Homo sapiens, MOLM-13, 72 h) it was above 30 nM.
As to `CCn1c(CO)nn(-c2cc3c(C(C)C)cc(N4CCCC[C@@H]4C)nc3cc2F)c1=O` [Example 17, (S)-4-Ethyl-2-(7-fluoro-4-isopropyl-2-(2-methylpiperidin-1-yl)quinolin-6-yl)-5-(hydroxymethyl)-2,4-dihydro-3H-1,2,4-triazol-3-one], the concentration for half-maximal inhibition (IC50) on human DHODH was found to be 230 nM; in the assay with MOLM-13 cells (Homo sapiens, MOLM-13, 72 h), 40 nM.
Consider `CCn1c(CO)nn(-c2cc3c(C(C)C)cc(N4CCCC[C@H]4C)nc3cc2F)c1=O` [Example 18, (R)-4-Ethyl-2-(7-fluoro-4-isopropyl-2-(2-methylpiperidin-1-yl)quinolin-6-yl)-5-(hydroxymethyl)-2,4-dihydro-3H-1,2,4-triazol-3-one], for which the half-maximal inhibitory concentration (IC50) is 2280 nM against human DHODH and above 100 nM in the assay on MOLM-13 cells (Homo sapiens, MOLM-13, 72 h).
Take `CCn1c(CO)nn(-c2cc3c(C(C)C)cc(-c4c(C)cnc(O)c4C)nc3cc2F)c1=O` [Example 19, 4-Ethyl-2-(7-fluoro-2-(2-hydroxy-3,5-dimethylpyridin-4-yl)-4-isopropylauinolin-6-yl)-5-(hydroxymethyl)-2,4-dihydro-3H-1,2,4-triazol-3-one]: the half-maximal inhibitory concentration (IC50) against human DHODH is 12 nM; in the assay on MOLM-13 cells (Homo sapiens, MOLM-13, 72 h), above 100 nM.
For `CCn1c(CO)nn(-c2cc3c(C(C)C)cc(C4CCOCC4)nc3cc2F)c1=O` [Example 20, 4-Ethyl-1-(7-fluoro-4-isopropyl-2-(tetrahydro-2H-pyran-4-yl)quinolin-6-yl)-3-(hydroxymethyl)-1H-1,2,4-triazol-5 (4H)-ene], in that order: 730 nM and above 100 nM.
Compound `[2H]C([2H])([2H])c1ccccc1-c1cc(C(C)C)c2cc(-n3nc(CO)n(CC)c3=O)c(F)cc2n1` [Example 38, 4-Ethyl-1-(7-fluoro-4-isopropyl-2-(o-methyl-d3-phenyl)quinolin-6-yl)-3-(hydroxymethyl)-1H-1,2,4-triazol-5 (4H)-one] yielded an IC50 against human DHODH of 1.7 nM.
